Earlier results in patent US9782454B2 (LONGEVITY BIOTECH, INC., priority 2010, dated 2017).
Non-standard residues stand in square brackets, D forms with d. No end group written: not given here. dPhe(4-Cl) = N[C@H](Cc1ccc(Cl)cc1)C(=O)O

Assays:
14.3.3 proteins = details: read-out: KD, antagonist of 14.3.3 proteins; cited from earlier work
mCRF2β = target: T1, mCRF2β (Mus musculus, UniProt Q60748); details: cited from earlier work
T1 construct: expressed in transfected cells; host or cells: HEK-mCRF2β cells (value quoted from the literature)

mouse CRF2β = mouse CRF2β (Mus musculus, UniProt Q60748); details: read-out: Kd for binding to mouse CRF2β; cited from earlier work
rat CRF1 receptors = target: T2, rat CRF1 receptors (Rattus norvegicus, UniProt P35353); details: read-out: Kd for binding to rat CRF1 receptors; cited from earlier work
T2 sequence (P35353 24-415): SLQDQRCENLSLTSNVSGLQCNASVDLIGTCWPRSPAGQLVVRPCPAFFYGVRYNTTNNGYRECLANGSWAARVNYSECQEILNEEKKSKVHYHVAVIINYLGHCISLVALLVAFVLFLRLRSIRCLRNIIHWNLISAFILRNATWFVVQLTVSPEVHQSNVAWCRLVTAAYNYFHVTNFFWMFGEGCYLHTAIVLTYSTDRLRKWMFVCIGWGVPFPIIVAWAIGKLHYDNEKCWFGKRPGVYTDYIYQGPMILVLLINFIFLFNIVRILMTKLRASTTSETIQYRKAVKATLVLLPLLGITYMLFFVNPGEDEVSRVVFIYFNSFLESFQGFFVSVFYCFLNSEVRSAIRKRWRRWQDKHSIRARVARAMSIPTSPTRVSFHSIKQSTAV

glucagon receptors = glucagon receptors (Homo sapiens, UniProt P47871); details: cited from earlier work
GRF receptors = target: T3, GRF receptors (Homo sapiens, UniProt Q02643); details: cited from earlier work
T3 sequence (Q02643 23-423): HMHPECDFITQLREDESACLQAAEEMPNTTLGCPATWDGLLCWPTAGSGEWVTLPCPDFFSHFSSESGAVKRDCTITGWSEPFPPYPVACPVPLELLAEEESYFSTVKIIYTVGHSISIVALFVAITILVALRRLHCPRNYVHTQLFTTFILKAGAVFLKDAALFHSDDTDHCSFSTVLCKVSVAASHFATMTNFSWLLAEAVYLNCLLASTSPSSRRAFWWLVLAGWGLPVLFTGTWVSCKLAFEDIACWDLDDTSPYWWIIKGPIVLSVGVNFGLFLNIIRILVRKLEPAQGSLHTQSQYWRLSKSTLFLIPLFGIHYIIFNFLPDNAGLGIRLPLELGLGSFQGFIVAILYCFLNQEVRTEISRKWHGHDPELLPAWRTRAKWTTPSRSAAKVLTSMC

[1] = target: vasoactive intestinal peptide (VIP) receptor; details: read-out: IC50, selective VIP antagonist; cited from earlier work
secretin receptors = secretin receptors (Homo sapiens, UniProt P47872); details: cited from earlier work
neurotensin receptors = details: read-out: IC50 for inhibition of {Trp11}-NT binding to rat brain receptors; cited from earlier work
neurotensin receptor = target: T4, neurotensin receptor (Mus musculus, UniProt O88319); details: read-out: IC50 for inhibition of {125I}-NT binding to neonatal mouse brain; cited from earlier work
T4 construct: from tissue; host or cells: neonatal mouse brain (value quoted from the literature)

guinea pig ileum = details: read-out: EC50 for contraction of guinea pig ileum; cited from earlier work

T4 sequence (O88319 whole entry): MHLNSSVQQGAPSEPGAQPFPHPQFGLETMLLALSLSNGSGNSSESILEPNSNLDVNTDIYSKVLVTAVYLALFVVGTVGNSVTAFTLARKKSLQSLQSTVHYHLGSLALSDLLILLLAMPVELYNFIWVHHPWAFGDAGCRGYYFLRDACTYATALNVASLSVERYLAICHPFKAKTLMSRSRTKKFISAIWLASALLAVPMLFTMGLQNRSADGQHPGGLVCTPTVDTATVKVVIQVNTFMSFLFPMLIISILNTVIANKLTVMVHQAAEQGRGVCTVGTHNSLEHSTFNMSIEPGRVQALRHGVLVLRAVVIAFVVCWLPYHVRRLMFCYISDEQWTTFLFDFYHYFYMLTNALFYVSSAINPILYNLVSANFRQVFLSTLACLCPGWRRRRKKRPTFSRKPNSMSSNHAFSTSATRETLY
Chain of glucagon receptors (P47871 26-477): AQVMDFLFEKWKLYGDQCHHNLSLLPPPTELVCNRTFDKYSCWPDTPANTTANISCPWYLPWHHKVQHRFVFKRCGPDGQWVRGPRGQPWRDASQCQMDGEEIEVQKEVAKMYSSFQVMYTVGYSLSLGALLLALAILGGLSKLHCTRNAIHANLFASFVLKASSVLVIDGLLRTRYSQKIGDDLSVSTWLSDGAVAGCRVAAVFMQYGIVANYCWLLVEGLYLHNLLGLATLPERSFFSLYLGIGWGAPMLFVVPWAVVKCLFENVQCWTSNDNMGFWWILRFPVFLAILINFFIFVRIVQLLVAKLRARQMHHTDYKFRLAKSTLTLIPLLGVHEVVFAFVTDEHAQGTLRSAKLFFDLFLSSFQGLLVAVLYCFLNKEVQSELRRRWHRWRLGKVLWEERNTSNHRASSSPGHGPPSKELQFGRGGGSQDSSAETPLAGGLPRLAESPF
T1 sequence (Q60748 1-431 isoform Q60748-2): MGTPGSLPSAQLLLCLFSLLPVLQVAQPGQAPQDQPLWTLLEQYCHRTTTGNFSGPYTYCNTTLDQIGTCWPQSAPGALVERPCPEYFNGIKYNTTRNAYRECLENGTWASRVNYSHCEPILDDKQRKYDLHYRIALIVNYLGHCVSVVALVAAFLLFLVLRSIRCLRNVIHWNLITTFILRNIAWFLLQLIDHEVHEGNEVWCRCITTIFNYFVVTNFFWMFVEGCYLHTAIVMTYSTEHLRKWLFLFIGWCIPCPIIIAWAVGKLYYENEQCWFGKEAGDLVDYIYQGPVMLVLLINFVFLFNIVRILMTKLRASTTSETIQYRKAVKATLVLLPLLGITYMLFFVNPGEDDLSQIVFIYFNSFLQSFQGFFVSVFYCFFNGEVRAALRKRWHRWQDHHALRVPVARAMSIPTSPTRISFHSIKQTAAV
Chain of mouse CRF2β (Q60748 1-431 isoform Q60748-2): as above
Chain of secretin receptors (P47872 23-440): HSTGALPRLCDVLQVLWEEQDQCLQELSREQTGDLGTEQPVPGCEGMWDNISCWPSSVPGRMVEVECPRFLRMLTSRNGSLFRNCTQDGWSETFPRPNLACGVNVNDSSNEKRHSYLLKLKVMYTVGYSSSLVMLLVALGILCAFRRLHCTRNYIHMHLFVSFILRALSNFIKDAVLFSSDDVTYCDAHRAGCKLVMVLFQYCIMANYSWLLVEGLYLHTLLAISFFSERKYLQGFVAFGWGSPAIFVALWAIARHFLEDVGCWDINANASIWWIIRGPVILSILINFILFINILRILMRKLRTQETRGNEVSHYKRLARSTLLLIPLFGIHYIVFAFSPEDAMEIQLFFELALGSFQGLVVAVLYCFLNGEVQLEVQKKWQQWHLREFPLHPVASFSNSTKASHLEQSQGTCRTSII

R18 (RYVVLPRPVCFEKGMNYTVR; Peptide F9) [Compound R18]
Kd (14.3.3 proteins): ~80 nM

Antisauvagine-30
pA2, inhibition of sauvagine-stimulated cAMP accumulation in HEK-mCRF2β cells (mCRF2β): sauvagine-stimulated cAMP accumulation in HEK-mCRF2β cells (pA2 = 8.49). Prevents stress-
Kd (mouse CRF2β): 1.4 nM
Kd (rat CRF1 receptors): 154 nM

{D-p-C1-Phe6,Leu17}-VIP ([dPhe(4-Cl)]TDNYTRLRKQMAVKKYLNSILN-NH2)
activity on glucagon receptors (glucagon receptors): no activity
activity on GRF receptors (GRF receptors): no activity
IC50 [1]: 126 nM
activity on secretin receptors (secretin receptors): no activity

Neuromedin N (rat, mouse, porcine, canine) (KIPYIL; Neuromedin N; UniProt P20068 142-147, looked up)
IC50 (neurotensin receptors): 16.7 nM

JMV 449 (IARRHPYFL; Kinetensin)
IC50 (neurotensin receptor): 0.15 nM
EC50 (guinea pig ileum): 1.9 nM
